Source: US9475789B2, “Use of polyenylpyrrole derivatives for treating inflammation” (WELLHEAD BIOLOGICAL TECHNOLOGY CORP., priority 2014, dated 2016)
“Also recorded” adds a separate entry of the source.

Key:
[1] = test system: LPS-induced NO generation in RAW 264.7 macrophages; experiment: NO inhibitory assay (Griess reaction) in LPS-activated macrophages; type: cell-based, murine
Procedure: In (A) and (C), cells (5×10^5/ml) were incubated with polyenylpyrrole derivatives or DMSO (vehicle) for 30 min followed by stimulating with LPS (1 μg/ml) for 24 h, then NO (A), IL-6 and TNF-α (C) concentration in culture medium were assayed by Griess reaction and ELISA, respectively. In (B), cells (5×10^5/ml) were pretreated with polyenylpyrrole derivatives or DMSO for 30 min followed by stimulating with LPS (1 μg/ml) for 24 h, then the protein expression of iNOS and COX-2 were assayed by Western blot. […] RAW 264.7 cells were seeded in 24-well plates at a density of 5×10^5 cells/ml, and then incubated with or without LPS (1 μg/ml) in the absence or presence of tested samples for 24 h. The effects of the tested samples on NO production were measured indirectly by analysis of nitrite levels using the Griess reaction.

TNF-α = TNF-α ELISA, LPS-activated J774A.1 macrophages; type: cell-based, murine; conditions: J774A.1 cells, LPS 1 μg/ml 24 h
Procedure: (A) J774A.1 macrophages (4×10^5/ml), (B) peritoneal macrophages (4×10^5/ml), and (C) JAWSII dendritic cells (4×10^5/ml) were incubated with compound 1h or DMSO for 30 min followed by stimulating with LPS (1 μg/ml) for 24 h, then IL-6 and TNF-α concentration in culture medium were assayed by ELISA. The data are expressed as the mean±SD for three separate experiments. *, **, and *** indicate a significant difference at the level of p<0.05, p<0.01, p<0.001 respectively compared to LPS group.
The effects of tested samples on IL-1β, TNF-α and IL-6 production were measured by ELISA according to the manufacturer's instruction. In brief, 50 μl of biotinylated antibody reagent and 50 μl of supernatant were added to an anti-mouse IL-1β, TNF-α and IL-6 precoated stripwell plate, and incubated at room temperature for 2 h. After washing the plate three times with washing buffer, 100 μl of diluted streptavidin-HRP concentrate was added to each well and incubated at room temperature for 30 min. The washing process was repeated; then 100 μl of a premixed tetramethylbenzidine substrate solution was added to each well and developed at room temperature in the dark for 30 min. Following the addition of 100 μl of stop solution to each well to stop the reaction, the absorbance of the plate was measured by a microplate reader at 450 nm wavelength.

IL-1β = IL-1β ELISA, LPS+ATP-activated peritoneal macrophages; type: cell-based, C57BL/6 mice; conditions: primary peritoneal macrophages; compound before LPS and ATP
Procedure: (A) J774A.1 macrophages (1×10^6/ml) and (B) peritoneal macrophages (1×10^5/ml) were incubated with compound 1h for 30 min followed by LPS (1 μg/ml) stimulating for 5.5 h, then the cells were stimulated with ATP (5 mM) for an additional 30 min. The IL-1β in the culture medium was measured by ELISA and the expression of active caspase-1 (p10) was measured by Western blot. In (C) and (D), J774A.1 macrophages (1×10^6/ml) were incubated with LPS (1 μg/ml) for 5.5 h, then cells were incubated with compound 1h for 30 min followed by stimulating with ATP (5 mM) for an additional 30 min. The IL-1β and IL-6 in the culture medium were measured by ELISA and the expression of active caspase-1 (p10) was measured by Western blot. In (E), J774A.1 macrophages (1×10^6/ml) were incubated with compound 1h for 30 min followed by LPS (1 μg/ml) stimulating for 6 h. The expression of NLRP3 and proIL-1β were measured by Western blot.
The effects of tested samples on IL-1β, TNF-α and IL-6 production were measured by ELISA according to the manufacturer's instruction. […] Following the addition of 100 μl of stop solution to each well to stop the reaction, the absorbance of the plate was measured by a microplate reader at 450 nm wavelength.

IKK-α and IκB-α = experiment: Western blot of IKK-α and IκB-α, LPS-activated RAW 264.7 macrophages; type: cell-based, murine; conditions: LPS-activated RAW 264.7, LPS 20 min
Procedure: (§1) (A) RAW 264.7 macrophages (5×10^5/ml) or (B) J774A.1 macrophages (5×10^5/ml) were incubated with compound 1h or DMSO for 30 min followed by LPS (1 μg/ml) stimulating for 20 min, then the phosphorylation levels of IKK-α and IκB-α and total IκB-α protein level were analyzed by Western blot. (C) RAW 264.7 macrophages (5×10^5/ml) or (D) J774A.1 macrophages (5×10^5/ml) were incubated with compound 1h (10-40 μM) or DMSO for 30 min followed by LPS (1 μg/ml) stimulating for 20 min, then the nuclear translocation of NF-κB were analyzed by ELISA. (E) RAW-Blue™ cells (5×10^5/ml) were incubated with compound 1h (2.5-40 μM) or DMSO for 30 min followed by LPS (1 μg/ml) stimulating for 24 h, then the SEAP activity was measured by QUANTI-Blue™. […] In (C), (D), and (E), the data are expressed as the mean±SD for three separate experiments. *, **, and *** indicate a significant difference at the level of p<0.05, p<0.01, and p<0.001 respectively compared to LPS group.
Whole cell lysates were separated by SDS-PAGE and electrotransferred to a PVDF membrane. The membranes were incubated in blocking solution—5% nonfat milk in phosphate buffered saline with 0.1% Tween 20—at room temperature for 1 h. Each membrane was incubated with a specific primary antibody at room temperature for 2 h. After washing three times in PBS with 0.1% Tween 20, the membrane was incubated with an HRP-conjugated secondary antibody directed against the primary antibody. The membrane was developed by an enhanced chemiluminescence Western blot detection system.

NF-κB p65 = NF-κB p65 nuclear translocation ELISA, J774A.1 macrophages; type: cell-based, murine; conditions: compound 1h 10-40 μM, LPS 20 min
Procedure: as §1
Nuclear protein from RAW 264.7 and J774A.1 cells were extracted using a Nuclear Extract Kit (Active Motif) according to the manufacturer's instructions and nuclear NF-κB p65 activation quantified using an ELISA-based TransAM NF-κB kit (Active Motif, Tokyo, Japan) according to the manufacturer's protocol by reading the absorbance with a microplate absorbance reader (Bio-Rad Laboratories, Inc) at 450 nm with a reference wavelength of 655 nm.

EC50 ([1]; Mus musculus, RAW264.7, 50% inhibition of the LPS-induced NO generation, RAW 264.7, LPS 1 μg/ml, 24 h, read-out: ED50 (the source's name)): 15 ± 2 µM
Structure (SMILES): O=c1cc(O)cc(/C=C/C=C/C=C/C=C/c2[nH]ccc2Cl)o1 [Compound 1h]
production of NO by LPS-activated cells ([1]; RAW 264.7, LPS 1 μg/ml 24 h, Griess reaction): decreased production; also recorded: decreased the production of NO by LPS-activated cells in a dose-dependent manner | background level of NO ([1]; compound alone, no LPS, RAW 264.7, data not shown): did not alter | secretion of TNF-α (TNF-α): reduced | IL-1β inhibition activity (IL-1β): confirmed | IκB-α degradation (IKK-α and IκB-α): partially rescued | phosphorylation level of IKK-α (IKK-α and IκB-α): inhibited | phosphorylation level of IκB-α (IKK-α and IκB-α): inhibited | NF-κB nuclear translocation (NF-κB p65): inhibited NF-κB nuclear translocation
